Literature values as cited in patent US7320970B2, “Low dose estrogen interrupted hormone replacement therapy” (Duramed Pharmaceutials, Inc., priority 1999, dated 2008).

Experiments:
[1] = test system: hot flushes
[2] = test system: progestin receptors
[3] = biological target: T1, human sex-hormone-binding globulin (SHBG) (Homo sapiens, UniProt P04278)
T1 sequence (P04278 30-402): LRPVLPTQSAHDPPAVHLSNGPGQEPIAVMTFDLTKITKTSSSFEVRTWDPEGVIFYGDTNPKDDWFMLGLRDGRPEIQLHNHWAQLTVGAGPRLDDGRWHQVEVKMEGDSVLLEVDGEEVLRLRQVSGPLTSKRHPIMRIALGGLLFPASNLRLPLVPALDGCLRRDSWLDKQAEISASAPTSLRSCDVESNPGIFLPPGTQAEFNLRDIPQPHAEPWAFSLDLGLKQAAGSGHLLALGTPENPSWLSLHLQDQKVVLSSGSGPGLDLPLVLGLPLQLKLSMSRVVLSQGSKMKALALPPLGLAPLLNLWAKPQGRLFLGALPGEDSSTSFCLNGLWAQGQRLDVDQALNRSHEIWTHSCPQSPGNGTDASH

Structure (SMILES): CC(=O)O[C@]1(C(C)=O)CC[C@H]2[C@@H]3C=C(C)C4=CC(=O)CC[C@]4(C)[C@H]3CC[C@@]21C [megestrol acetate]
- decrease in the frequency of hot flushes ([1]; dose of 20 to 80 mg/day, versus 21 percent with placebo): 85%

Structure (SMILES): C#C[C@]1(OC(C)=O)CC[C@H]2[C@@H]3CCC4=CC(=O)CC[C@@H]4[C@H]3CC[C@@]21C [norethindrone acetate]
- effectiveness against hot flushes ([1]; 10 mg daily): effective

Structure (SMILES): C#C[C@]1(OC(C)=O)CC[C@H]2[C@@H]3CCC4=C/C(=N/O)CC[C@@H]4[C@H]3CC[C@@]21CC [norgestimate, D-17β-acetoxy-B-ethyl-17α ethinyl-gon-4-en-3-one oxime]
- binding to progestin receptors [2]: binds to progestin receptors
- affinity for SHBG [3]: lack of affinity for SHBG
